Test results from ChEMBL document CHEMBL1201862, “PubChem BioAssay data set” (2004).
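How tested: cells in 96-well plates exposed to compound for 48 hours at five concentrations. The concentration for 50% growth inhibition is given as GI50.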 The source made the active and inactive calls. No stated cut-off is given here; in the data, active = GI50 up to about 1.1 µM and inactive = higher.

Legend:
Test in all cases: NCI anticancer screen, dose series, 48 h
CCRF-CEM = tested on: CCRF-CEM
EKVX = tested on: EKVX
HOP-62 = tested on: HOP-62
HOP-92 = tested on: HOP-92
IGROV-1 = tested on: IGROV-1
KM12 = tested on: KM12
LOX IMVI = tested on: LOX IMVI
MOLT-4 = tested on: MOLT-4
NCI-H226 = tested on: NCI-H226
NCI-H23 = tested on: NCI-H23
NCI-H460 = tested on: NCI-H460
NCI-H522 = tested on: NCI-H522
RPMI-8226 = tested on: RPMI-8226
SF-268 = tested on: SF-268
SF-539 = tested on: SF-539
SK-MEL-2 = tested on: SK-MEL-2
U-251 = tested on: U-251
UACC-257 = tested on: UACC-257
HCT-116 = tested on: HCT-116

Measured: GI50

CC1=C(C(=O)Nc2ccc([N+](=O)[O-])cc2)C(c2ccc(N(C)C)cc2)C(C(=O)Nc2ccc([N+](=O)[O-])cc2)=C(C)N1
inactive: CCRF-CEM 17.8 µM | EKVX 25.4 µM | HOP-62 12.6 µM | HOP-92 12.1 µM | IGROV-1 19.1 µM | KM12 11.6 µM | LOX IMVI 9.04 µM | MOLT-4 9.14 µM | NCI-H226 17.6 µM | NCI-H23 18 µM | NCI-H460 17.4 µM | NCI-H522 11 µM | RPMI-8226 12.2 µM | SF-268 23.8 µM | SF-539 23 µM | SK-MEL-2 13.7 µM | U-251 21.9 µM | UACC-257 16.4 µM

COC(=O)c1ccc(Cc2ccc(C(=O)OC)o2)o1
inactive: CCRF-CEM > 378 µM | EKVX > 378 µM | HCT-116 > 378 µM | HOP-62 > 378 µM | HOP-92 > 378 µM | IGROV-1 > 378 µM | KM12 > 378 µM | LOX IMVI > 378 µM | MOLT-4 > 378 µM | NCI-H226 > 378 µM | NCI-H23 > 378 µM | NCI-H460 > 378 µM | NCI-H522 > 378 µM | RPMI-8226 > 378 µM | SF-268 > 378 µM | SF-539 > 378 µM | SK-MEL-2 > 378 µM | U-251 > 378 µM | UACC-257 > 378 µM

Clc1ccc(CN2COc3c(cc(Cl)c4cccnc34)C2)cc1
inactive: CCRF-CEM 1.79 µM | EKVX 4.7 µM | HCT-116 2.15 µM | HOP-62 1.5 µM | HOP-92 3.64 µM | IGROV-1 2.36 µM | KM12 2.37 µM | LOX IMVI 1.38 µM | MOLT-4 1.7 µM | NCI-H226 4.06 µM | NCI-H23 2.57 µM | NCI-H460 2.29 µM | NCI-H522 1.6 µM | RPMI-8226 1.16 µM | SF-268 2.93 µM | SF-539 2.03 µM | SK-MEL-2 1.85 µM | U-251 2.32 µM | UACC-257 2.84 µM

c1ccc(-c2[nH]c(-c3ccccc3)c(-c3cnccn3)c2-c2cnccn2)cc1
inactive: CCRF-CEM > 100 µM | EKVX > 100 µM | HCT-116 > 100 µM | HOP-62 > 100 µM | HOP-92 > 100 µM | IGROV-1 > 100 µM | KM12 30.3 µM | LOX IMVI > 100 µM | MOLT-4 > 100 µM | NCI-H226 > 100 µM | NCI-H23 > 100 µM | NCI-H460 > 100 µM | NCI-H522 > 100 µM | RPMI-8226 82.6 µM | SF-268 > 100 µM | SF-539 > 100 µM | SK-MEL-2 > 100 µM | U-251 > 100 µM | UACC-257 > 100 µM

CC1=C(C(=O)Nc2cccc(C(F)(F)F)c2)C(c2ccccc2F)C(C(=O)Nc2cccc(C(F)(F)F)c2)=C(C)N1
inactive: CCRF-CEM 3.09 µM | EKVX 3.94 µM | HCT-116 3.63 µM | HOP-62 12.9 µM | HOP-92 2.8 µM | IGROV-1 11.3 µM | KM12 3.74 µM | LOX IMVI 5.37 µM | MOLT-4 2.6 µM | NCI-H226 4.38 µM | NCI-H23 4.59 µM | NCI-H460 4.23 µM | NCI-H522 4.79 µM | RPMI-8226 2.58 µM | SF-268 6.52 µM | SF-539 8.75 µM | SK-MEL-2 3.03 µM | U-251 8.69 µM | UACC-257 8.65 µM

COC(=O)C1=C(c2cc(OC)c(OC)c(OC)c2)OC(c2cc(OC)c(OC)c(OC)c2)C1COC(C)=O (stereo not given)
inactive: CCRF-CEM 41.8 µM | EKVX > 100 µM | HCT-116 30.4 µM | HOP-62 36.6 µM | HOP-92 10.3 µM | IGROV-1 54.1 µM | KM12 51.8 µM | LOX IMVI 20.8 µM | MOLT-4 20.8 µM | NCI-H226 46.1 µM | NCI-H23 33.7 µM | NCI-H460 36.6 µM | NCI-H522 16.7 µM | RPMI-8226 29.1 µM | SF-268 > 100 µM | SF-539 > 100 µM | U-251 51.6 µM | UACC-257 95.7 µM

N#CC(NNC(=O)Cc1ccccc1)c1cccc(O)c1 (stereo not given)
inactive: CCRF-CEM > 100 µM | HCT-116 > 100 µM | HOP-62 > 100 µM | HOP-92 > 100 µM | IGROV-1 > 100 µM | KM12 > 100 µM | LOX IMVI > 100 µM | MOLT-4 > 100 µM | NCI-H226 > 100 µM | NCI-H23 > 100 µM | NCI-H460 > 100 µM | NCI-H522 > 100 µM | RPMI-8226 > 100 µM | SF-268 > 100 µM | SF-539 > 100 µM | SK-MEL-2 > 100 µM | U-251 > 100 µM | UACC-257 > 100 µM

CCc1cccc(CC)c1NC(=O)/C(Cl)=C(/Cl)C(=O)O
inactive: CCRF-CEM 6.44 µM | EKVX > 56.6 µM | HCT-116 25 µM | HOP-62 > 100 µM | HOP-92 21.7 µM | IGROV-1 32.2 µM | KM12 > 100 µM | LOX IMVI > 100 µM | MOLT-4 9.25 µM | NCI-H226 > 100 µM | NCI-H23 38.3 µM | NCI-H460 > 100 µM | NCI-H522 10.2 µM | RPMI-8226 32.1 µM | SF-268 40.3 µM | SF-539 33 µM | SK-MEL-2 > 100 µM | U-251 > 58.2 µM | UACC-257 24.1 µM

CC1=NN(C(=O)Cc2ccccc2)C(=O)/C1=C\c1ccc(O)cc1
inactive: CCRF-CEM > 100 µM | EKVX > 100 µM | HCT-116 > 100 µM | HOP-62 > 100 µM | HOP-92 > 100 µM | IGROV-1 > 100 µM | KM12 > 100 µM | LOX IMVI > 100 µM | MOLT-4 > 100 µM | NCI-H226 > 100 µM | NCI-H23 > 100 µM | NCI-H460 > 100 µM | NCI-H522 > 100 µM | RPMI-8226 > 100 µM | SF-268 > 100 µM | SF-539 > 100 µM | SK-MEL-2 > 100 µM | U-251 > 100 µM | UACC-257 > 100 µM

COc1ccc(CCN2CCOCC2)cc1
inactive: CCRF-CEM > 100 µM | EKVX > 100 µM | HCT-116 > 100 µM | HOP-62 > 100 µM | HOP-92 > 100 µM | IGROV-1 > 100 µM | KM12 > 100 µM | LOX IMVI > 100 µM | MOLT-4 > 100 µM | NCI-H226 > 100 µM | NCI-H23 > 100 µM | NCI-H460 > 100 µM | NCI-H522 > 100 µM | RPMI-8226 > 100 µM | SF-268 > 100 µM | SF-539 > 100 µM | SK-MEL-2 > 100 µM | U-251 > 100 µM | UACC-257 > 100 µM

Cc1ccc(Nc2ccc(Nc3ccc(C)cc3)c3c2C(=O)c2c(O)ccc(O)c2C3=O)cc1
inactive: CCRF-CEM 67.6 µM | EKVX > 100 µM | HCT-116 > 100 µM | HOP-62 > 100 µM | HOP-92 > 100 µM | IGROV-1 > 100 µM | KM12 > 100 µM | LOX IMVI > 100 µM | MOLT-4 > 100 µM | NCI-H23 > 100 µM | NCI-H460 > 100 µM | NCI-H522 47.8 µM | RPMI-8226 > 100 µM | SF-268 > 100 µM | SF-539 66.2 µM | SK-MEL-2 > 100 µM | U-251 > 100 µM | UACC-257 > 100 µM

C=C(Br)CNC(=O)Nc1ccc(Cl)c(Cl)c1
inactive: CCRF-CEM 19.3 µM | EKVX 28.1 µM | HCT-116 17.1 µM | HOP-62 22.5 µM | HOP-92 19.9 µM | IGROV-1 13.6 µM | KM12 17.3 µM | LOX IMVI 19.7 µM | MOLT-4 26.2 µM | NCI-H226 25.4 µM | NCI-H23 15.6 µM | NCI-H460 26.5 µM | NCI-H522 18.6 µM | RPMI-8226 17.3 µM | SF-268 27.3 µM | SF-539 19.3 µM | SK-MEL-2 12.6 µM | U-251 22.6 µM

CC(C)(Oc1ccc2c(=O)cc(-c3ccccc3)oc2c1)C(=O)Nc1c(Cl)cccc1Cl
inactive: CCRF-CEM 57.7 µM | EKVX > 100 µM | HCT-116 59.2 µM | HOP-62 > 100 µM | HOP-92 20.1 µM | IGROV-1 > 100 µM | KM12 79.1 µM | LOX IMVI > 100 µM | MOLT-4 76.4 µM | NCI-H23 > 100 µM | NCI-H460 > 100 µM | NCI-H522 38 µM | RPMI-8226 47.8 µM | SF-268 > 100 µM | SF-539 > 100 µM | SK-MEL-2 > 100 µM | U-251 > 100 µM | UACC-257 > 100 µM

COc1ccc(-c2c(-c3ccc(OC)cc3)n3c(=O)n(C)c(=O)n23)cc1
inactive: CCRF-CEM 59.4 µM | EKVX 34.9 µM | HCT-116 > 100 µM | HOP-62 22.7 µM | HOP-92 18.8 µM | IGROV-1 > 100 µM | KM12 > 100 µM | LOX IMVI > 100 µM | MOLT-4 > 100 µM | NCI-H226 60.4 µM | NCI-H23 > 100 µM | NCI-H522 > 100 µM | RPMI-8226 76.4 µM | SF-539 24.6 µM | SK-MEL-2 43.2 µM | U-251 > 100 µM | UACC-257 50.5 µM

O=C(O)CN(c1ccc(Cl)cc1)S(=O)(=O)c1ccccc1
inactive: CCRF-CEM > 100 µM | EKVX > 100 µM | HOP-92 > 100 µM | IGROV-1 > 100 µM | KM12 > 100 µM | LOX IMVI > 100 µM | MOLT-4 > 100 µM | NCI-H226 > 100 µM | NCI-H23 > 100 µM | NCI-H460 > 100 µM | NCI-H522 > 100 µM | RPMI-8226 > 100 µM | SF-268 > 100 µM | SF-539 > 100 µM | SK-MEL-2 > 100 µM | U-251 > 100 µM | UACC-257 > 100 µM
